Results taken from PMC10160035, “Mechanism-based and computational modeling of hydrogen sulfide biogenesis inhibition: interfacial inhibition” (Scientific Reports, 2023).

Tests used:
CSE = conditions: cited from earlier work
[1] = tested on: recombinant CSE (GST-CSE); conditions: 1 mM Cys, methylene blue assay, 10 min pre-incubation with CSE; read-out: IC50 towards H2S production; cited from earlier work
[2] = biological target: T1, human CSE (cystathionine γ-lyase) (Homo sapiens, UniProt P32929); assay: lead acetate assay of H2S production from cysteine; type: biochemical; set-up: 6xHis (TEV-cleavable) (N, cleaved yes); made in house; host or cells: E. coli One Shot BL-21 Star (DE3)
Description: Production of H2S from cysteine by CSE was measured spectrophotometrically by the lead acetate assay as previously described. […] Then, the formation of lead sulfide resulting from the reactivity of H2S with lead acetate was continuously monitored at 390 nm. The half inhibitory concentration (IC50) value was obtained by plotting the relative activity of CSE (A, in per cent) as a function of the concentration of D-pen and by fitting the data with Eq. (4), where ∆A is the maximal effect of D-pen on the activity of CSE and n is the Hillslope that characterizes the slope of the curve at its midpoint.4 A=ΔA/1+[D-Pen]/IC50^n
Next, 40 μg of CSE was added to the assay mixture to initiate the reaction, which was followed at 390 nm. The molar extinction coefficient for lead sulfide previously determined was then used to obtain vH2S[24]. The CSE-D-penicillamine dissociation constants for competitive and uncompetitive inhibition were calculated by plotting vH2S as a function of cysteine concentration and using Eq. (5).5 vH2S=Vmax×[Cys]/KM×1+[D-Pen]/Kic+[Cys]×1+[D-Pen]/Kiu

[3] = biological target: T1, human CSE (cystathionine γ-lyase)
[4] = biological target: T1, human CSE (cystathionine γ-lyase); assay: biochemical
[5] = tested on: homogenated mouse aorta samples; set-up: method as in Brancaleone et al. (34); conditions: ref Brancaleone et al. (34), read-out: IC50 ex cellulo; cited from earlier work
[6] = biological target: T2, recombinant human CSE (cystathionine γ-lyase), tag-less (Homo sapiens, UniProt P32929); assay: D-penicillamine binding followed by PLP fluorescence quenching; conditions: PLP fluorescence at 495 nm, 100 mM HEPES pH 7.4, 20 °C, n = 3 ± SD; read-out: Kd (dissociation constant between tag-less CSE and D-pen)
T2 construct: 6xHis (TEV-cleavable) (N, cleaved yes); made in house; host or cells: E. coli One Shot BL-21 Star (DE3)
Description: The addition of D-pen induced a quenching of fluorescence. […] The black line represents the fit to the experimental data with a four-parameter logistic equation to obtain the dissociation binding constant of D-pen for CSE.
Fluorescence emission spectra were recorded 5 min after D-pen addition.

[7] = biological target: the molecule itself; assay: SEC; HiLoad 16/600 Superdex 200, 0.5 mL/min, 100 mM HEPES pH 7.4, 150 mM NaCl; oligomeric state from the estimated apparent molecular mass

T1 sequence (P32929 whole entry): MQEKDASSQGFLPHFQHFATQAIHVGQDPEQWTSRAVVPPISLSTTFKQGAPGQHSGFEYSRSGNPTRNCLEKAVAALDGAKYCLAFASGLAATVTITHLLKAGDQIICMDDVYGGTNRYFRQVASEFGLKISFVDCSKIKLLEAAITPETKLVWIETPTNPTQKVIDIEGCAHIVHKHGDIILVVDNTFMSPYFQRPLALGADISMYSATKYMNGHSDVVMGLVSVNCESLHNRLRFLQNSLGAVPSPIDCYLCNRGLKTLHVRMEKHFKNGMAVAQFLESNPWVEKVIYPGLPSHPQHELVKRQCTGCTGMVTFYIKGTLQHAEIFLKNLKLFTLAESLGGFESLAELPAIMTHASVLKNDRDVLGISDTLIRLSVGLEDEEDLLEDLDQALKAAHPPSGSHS
T2 sequence (P32929 whole entry): as above

C#CCNC(=O)[C@@H]1CSC(=O)N1 [(R)-2-oxo-N-(prop-2-yn-1-yl)thiazolidine-4-carboxamide]
inhibitory mode towards CSE (CSE): substrate inhibitors

CC(C)(S)[C@@H](N)C(=O)O [D-pen, D-penicillamine]
IC50 [1]: 0.27 mM
IC50 ([2]; 1 mM Cys, 200 mM HEPES pH 7.4, 37 °C, no pre-incubation with enzyme, read-out: IC50 towards H2S production): 2.04 ± 0.13 mM
Kiu (dissociation constant for uncompetitive inhibition), H2S biogenesis from Cys ([2]; 1–10 mM cysteine, 100 mM HEPES pH 7.4, 37 °C): 8.60 ± 1.22 mM
Ki ([2]; 1–10 mM cysteine, 100 mM HEPES pH 7.4, 37 °C, read-out: Kic (dissociation constant for competitive inhibition), H2S biogenesis from Cys): 1.82 ± 0.35 mM
mode of inhibition of H2S biogenesis ([2]; Lineweaver–Burk analysis, varying Cys): mixed inhibition mechanism
effect of pre-incubation time on inhibition potency ([2]; inhibition followed as a function of pre-incubating time): not a slow-binding inhibitor
Kiu (uncompetitive inhibition), α,γ-elimination of cystathionine ([3]; 0.1–3 mM cystathionine, 100 mM HEPES pH 7.4, 37 °C): 8.55 ± 0.89 mM
mode of inhibition of cystathionine cleavage ([3]; Lineweaver–Burk analysis): mixed inhibition mechanism
Ki [4]: 2.54 ± 0.65 mM
IC50 [5]: 0.044 mM
Kd [6]: 15 ± 4.6 mM

N[C@@H](CSCCCC(=O)O)C(=O)O [S-3-carboxypropyl-L-cysteine]
inhibitory mode towards CSE (CSE): suicide inhibitors

NCCO/C=C/[C@H](N)C(=O)O [aminoethoxyvinyglycine]
inhibitory mode towards CSE (CSE): slow and tight binding inhibitor

O=C(O)C1=CC(=C(c2ccc(O)c(C(=O)O)c2)c2ccc(O)c(C(=O)O)c2)C=CC1=O [aurintricarboxylic acid]
inhibitory mode towards CSE (CSE): competitive cofactor

C#CCC(N)C(=O)O (stereo not shown) [propargylglycine]
inhibitory mode towards CSE (CSE): suicide inhibitors

N[C@H](C(=O)O)C(F)(F)F [trifluoroalanine]
inhibitory mode towards CSE (CSE): suicide inhibitors

B1: human recombinant cystathionine γ-lyase with N-terminal 6xHis-tag (enzyme)
chain: MQEKDASSQGFLPHFQHFATQAIHVGQDPEQWTSRAVVPPISLSTTFKQGAPGQHSGFEYSRSGNPTRNCLEKAVAALDGAKYCLAFASGLAATVTITHLLKAGDQIICMDDVYGGTNRYFRQVASEFGLKISFVDCSKIKLLEAAITPETKLVWIETPTNPTQKVIDIEGCAHIVHKHGDIILVVDNTFMSPYFQRPLALGADISMYSATKYMNGHSDVVMGLVSVNCESLHNRLRFLQNSLGAVPSPIDCYLCNRGLKTLHVRMEKHFKNGMAVAQFLESNPWVEKVIYPGLPSHPQHELVKRQCTGCTGMVTFYIKGTLQHAEIFLKNLKLFTLAESLGGFESLAELPAIMTHASVLKNDRDVLGISDTLIRLSVGLEDEEDLLEDLDQALKAAHPPSG
modifications: pyridoxal 5'-phosphate as internal aldimine with Lys212
notes: cystathionine γ-lyase (CSE), human; also called CSE; hCSE; source: E. coli One Shot BL-21 Star (DE3), purified (His-Trap HP, HiLoad 16/600 Superdex 200); not shown: His6, N-terminal, kept
stoichiometry N [7]: 4

B2: tag-less human recombinant cystathionine γ-lyase (enzyme)
chain: MQEKDASSQGFLPHFQHFATQAIHVGQDPEQWTSRAVVPPISLSTTFKQGAPGQHSGFEYSRSGNPTRNCLEKAVAALDGAKYCLAFASGLAATVTITHLLKAGDQIICMDDVYGGTNRYFRQVASEFGLKISFVDCSKIKLLEAAITPETKLVWIETPTNPTQKVIDIEGCAHIVHKHGDIILVVDNTFMSPYFQRPLALGADISMYSATKYMNGHSDVVMGLVSVNCESLHNRLRFLQNSLGAVPSPIDCYLCNRGLKTLHVRMEKHFKNGMAVAQFLESNPWVEKVIYPGLPSHPQHELVKRQCTGCTGMVTFYIKGTLQHAEIFLKNLKLFTLAESLGGFESLAELPAIMTHASVLKNDRDVLGISDTLIRLSVGLEDEEDLLEDLDQALKAAHPPSG
modifications: pyridoxal 5'-phosphate as internal aldimine with Lys212
notes: cystathionine γ-lyase (CSE), human; tag removed with TEV protease; also called tag-less CSE; CSE; not shown: His6, N-terminal, cleaved
stoichiometry N [7]: 4
